Reference: patent US7205119B2, “HA-1 antigen” (Rijksuniversiteit te Leiden, priority 1997, dated 2007)
Where no end group is shown, it is not given here.

Legend:
[1] = tested on: recombinant HLA-A2.1 and b2-microglobulin; assay: HLA-A2.1 peptide binding assay (inhibition of binding of fluorescent standard peptide, cell free); design: species or system human; settings: for HLA-A2.1 binder class: class assigned from IC50
Procedure: (§1) FIG. 4a. Binding of HA-1^H and HA-1^R peptides to HLA-A2.1. The binding of HA-1^H and HA-1^R peptides were assayed for their ability to inhibit the binding of fluorescent peptide […] (SEQ ID NO: 17) to recombinant HLA-A2.1 and b2-microglobulin in a cell free peptide binding assay. One representative experiment is shown. […] (FIG. 4b.) Reconstitution assay with different concentrations of synthetic HA-1^R peptide with HA-1 specific T cells. The HA-1^R peptide was titrated and preincubated with T2 cells. Three HA-1 specific T cell clones, 5W38, 3HA15 and clone 15 were added and a 4 hr ^51Cr-release assay was performed. Background lysis of T2 by the CTL in the absence of any peptide was for 3HA15 4%, for clone 15 10% and for 5W38 2%. Positive control lysis was for 3HA15 46%, for clone 15 47% and 5W38 48%.
Reconstitution and HLA-A2.1 binding assays were performed to determine the capacity of HA-1^R peptide […] (SEQ ID NO: 5) to bind to HLA-A2.1 and to be recognized by the HA-1 specific T cell clones. […] Different concentrations of […] (SEQ ID NO: 5) were tested in a ^51Cr-release assay with three HA-1 specific T cell clones.
HLA-A2.1 peptide binding assay. A quantitative assay for HLA-A2.1 binding peptides based on the inhibition of binding of the fluorescent labeled standard peptide Hbc 18–27 F to C6 ([…]) (SEQ ID NO: 17) to recombinant HLA-A2.1 protein and B2-microglobulin was used^26,27. In short, HLA-A2.1 concentrations yielding approximately 40–60% bound fluorescent standard peptide were used with 15 pmol/well (150 nM) B2-microglobulin (Sigma). Various doses of the test peptides were coincubated with 100 fmol/well (1 nM) fluorescent standard peptide, HLA-A2.1 and B2-microglobulin for 1 day at room temperature in the dark in a volume of […] in assay.buffer. The percent of MHC-bound fluorescence was determined by gel filtration and the 50% inhibitory dose was deduced for each peptide using one-site competition non-linear regression analysis with the prismgraph software. […]

[2] = tested on: HA-1 specific T cell clones 3HA15, clone 15 and 5W38 (T2 target cells); assay: 51Cr-release reconstitution assay (CML assay) with peptide-loaded T2 cells and HA-1 specific CTL clones; type: cell-based, human
From the text: FIG. 2. Sequencing of mH HA-1 peptide by tandem mass spectrometry. (FIG. 2a.) Collision activation dissociation mass spectrum of peptide candidate with m/z of 513. (FIG. 2b.) Reconstitution assay with different concentrations of synthetic mH HA-1 peptide with three HA-1 specific T cell clones, 3HA15, clone 15 and 5W38. Background lysis of T2 by the CTL in the absence of any peptide was for 3HA15 4%, for clone 15 10% and for 5W38 2%. Positive control lysis was for 3HA15 46%, for clone 15 47% and 5W38 48%.
as §1, with “48%. […]” for “48%.”

VLHDDLLEA was tested, and the HLA-A2.1 binder class [1] was “high affinity binders”.
With VLRDDLLEA the “peptide concentration needed for recognition relative to that for the HA-1^H peptide” value ([2]; clone 3HA15 only (one out of three clones showed recognition)) was 1000 times, the “fold lower binding affinity for HLA-A2.1 versus HA-1^H peptide” value [1] was 10 fold and the HLA-A2.1 binder class [1] was “intermediate binders”.
In the case of “YXTDRVMTV [peptide candidate m/z 550; X stands for Isoleucine or Leucine]”, the “reconstitution of the HA-1 epitope by synthetic peptide” value ([2]; results not shown) is reported as “not able to reconstitute the HA-1 epitope”.
